Experimental data published in patent EP1151753B1, “PREVENTIVE AND THERAPEUTIC AGENTS FOR ARTERIOSCLEROSIS” (CCI CORPORATION, priority 1999, dated 2000).

What was measured:
[1] = tested on: ICR mice; assay: Test for acute toxicity; assay type: in vivo; conditions: 500 mg/kg orally, suspension in aqueous 5% gum arabic solution, visual inspection for one week
Procedure: The agent of this invention for preventing and curing arteriosclerosis was tested for acute toxicity with a view to confirming the safety. Groups each formed of three ICR mice aged 4 to 5 weeks were used for the test. The same TMG as mentioned above was suspended as the chromanol glucoside in an aqueous 5% gum arabic solution. The suspension was orally administered to the mice at a dosage of 500 mg/kg as reduced to TMG and the mice were kept under visual inspection for one week. To the control group, the aqueous 5% gum arabic solution was orally administered at a rate of 0.3 ml.

[2] = Lipoprotein analysis, WHHL rabbit model; assay type: in vivo, WHHL type rabbits; conditions: WHHL rabbits
Excerpt: 1. Animal used and feeding conditions In the test, female and male WHHL type rabbits (SPF: Kitayama Labels K.K.) which were eight weeks old at the time of arrival at the laboratory were subjected to quarantine and domestication and visually inspected as to the general condition and, after the absence of abnormality was confirmed, put to use. The body weights at the time of starting administration (at the age of nine weeks) were in the range of 1.5 - 1.9 kg in the case of male rabbits and in the range of 1.4 - 1.8 kg in the case of female rabbits. Throughout the entire duration of the test, the animals were raised as accommodated one each in hanger cages of aluminum installed on a stainless steel rack inside a clean feeding chamber set at a temperature in the range of 20 - 26°, a relative humidity in the range of 40 - 70%, a number of ventilations in the range of 10 - 20 turns/hour, and an illumination time within the range of 12 hours (7.00 - 19:00). They were fed on a commercially available radioactively sterilized solid feed (made by Oriental Kobo K.K. and sold under the product code of "RC4") and they were left freely drinking the tap water delivered by an automatic water supplying device. 2. Setting dosage and method of administration The dosage of TMG was set at 800 mg/head/day. The TMG was solved in reagent grade ethanol. The produced solution was sprayed on the feed and the wet feed was left drying in the air. A mixed feed was prepared so as to contain 800 mg of TMG per 100 g of the feed. The mixed feed was given to the rabbits every morning at a rate of 100 g/day per head for 27 weeks for the sake of attaining oral consumption of the TMG. The feed for the control group was obtained by spraying ethanol alone on a feed and air-drying the wet feed. It was given to the rabbits of the control group at a rate of 100 g/day per head for 27 weeks. 3. […] The blood was centrifuged to separate blood serum and the blood serum was analyzed for the items shown in Table 5 by the use of an automatic analyzer (made by Hitachi. Ltd. and sold under the product code of "736-20"). The body weight of each rabbit was measured at the rate of once a week throughout the entire duration of the administration.
5. […] The blood serum was ultracentrifuged by Hatch and Lees method (Hatch, F. T., and Lees, R. S. (1968) Advan, Lipid Res. 6, 1-68) using a centrifuge (the rotor; Beckman 70.1 Ti) made by Beckman and sold under the product code of "L-70") to separate low specific gravity lipoprotein (1.006 < d < 1.063), with the cholesterol amount of the LDL fraction determined by the cholesterol oxidase DASO method and the amount of HDL-cholesterol determined by subjecting the blood serum to the phospho-tungstic acid magnesium salt precipitation method. […]

[3] = TMG 800 mg/head/day in feed, 26th week of administration, average ± SE

Cc1c(C)c2c(c(C)c1O)CCC(C)(C[C@H]1O[C@H](CO)[C@@H](O)[C@H](O)[C@H]1O)O2 (stereo partly drawn) [TMG, 2-(α-D-glucopyranosyl)methyl-2,5,7,8-tetramethyl chroman-6-ol]
fatality [1]: None of the mice | activity of lowering the HDL-cholesterol ([2]; TMG 800 mg/head/day for 27 weeks): no activity | HDL-CHO [2, 3]: 5 ± 1 mg/dL | LDL-CHO [2, 3]: 746 ± 29 mg/dL | LDL-TMG ([2]; amount of TMG in LDL fraction by HPLC, TMG 800 mg/head/day in feed, 26th week of administration): not detected
